Source: patent publication US8158656B2, “2-indolinone derivatives as multi-target protein kinase inhibitors and histone deacetylase inhibitors” (Shenzhen Chipscreen Biosciences Ltd., priority 2008, dated 2012)

What was measured:
HDAC3 = molecular target: T1, HDAC3 (Homo sapiens, UniProt O15379); test: GDF11 reporter assay in HeLa cells; assay type: cell-based; details: for HDAC3 (GDF11 reporter assay) % Max Resp of CS055 at 3 μM: relative to CS055 at 3 μM; for EC50: 24 hours
T1 construct: endogenous in cells; host or cells: HeLa
Method: (§1) HDAC subtype selectivity inhibition assay of tested compounds was carried out by several reporter gene assays experiments. Briefly, HeLa cells were seeded in 96-well plates the day before transfection to give a confluence of 50-80%. Cells were transfected with one of reporter gene plasmid containing a promoter sequence or response element upstream of a luciferase gene construct using FuGene6 transfection reagent according to the manufacturer's instruction (Roche). The promoters or response elements including p21-promoter, gdf11-promoter, MEF-binding element (MEF2), Nur77-promoter were fused upstream to the luciferase gene reporter construct. For normalizing the transfection efficiency, a GFP expression plasmid was cotransfected. Cells were allowed to express protein for 24 hours followed by addition of individual compounds or the vehicle (DMSO). 24 hours later the cells were harvested, and the luciferase assay and GFP assay were performed using corresponding assay kits according to the manufacturer's instructions (Promega).

PDGFRβ NIH-3T3 cells = test: PDGF ligand-dependent cell proliferation; assay type: cell-based; details: Mus musculus, NIH3T3; NIH-3T3 expressing human PDGFRβ, PDGF BB 50 ng/ml, 72 hours, MTS
Method: Measurement of in vivo inhibition on receptor ligand-dependent cell proliferation: PDGF dependent cell proliferation:
NIH-3T3 mouse fibroblasts cell line engineered to stably express human PDGFRβ was constructed and used to evaluate PDGF dependent cell proliferation. PDGFRβ NIH-3T3 cells were plated into 96-well plates at 5,000 per well and incubated with serum-free medium for 24 hours. Compounds and PDGF BB (50 ng/ml) were added and incubated for 72 hours in serum-free medium. The effects on proliferation were determined by addition of MTS reagent (Promega) according to the instruction, incubation for 2 hours at 37° C. in CO2 incubator, and record the absorbance at 490 nm using an ELISA plate reader.

VEGFR2 = VEGFR2 (Homo sapiens, UniProt P35968); test: VEGF receptor kinase ELISA bioassay; assay type: biochemical; details: ELISA kinase assay, 200 μM ATP
MDA-MB-231 = test: Tumor cell proliferation (MTS), MDA-MB-231; assay type: cell-based; details: Homo sapiens, MDA-MB-231, 72 hours
Method: (§2) Measurement of in vivo cell proliferation:
(§3) Tumor cells were trypsinized and plated into 96-well plates at 3,000 per well and incubated in complete medium with 10% FBS for 24 hours. Compounds were added over a final concentration range of 100 μmol/L to 100 nmol/L in 0.1% DMSO and incubated for 72 hours in complete medium. The effects on proliferation were determined by addition of MTS reagent (Promega) according to the instruction, incubation for 2 hours at 37° C. in CO2 incubator, and record the absorbance at 490 nm using an ELISA plate reader.

U937 = test: Tumor cell proliferation (MTS), U937; assay type: cell-based; details: Homo sapiens, U-937, U937, 72 hours
Method: as §2, §3

total HDAC enzyme = test: Total HDAC enzyme activity, HDAC Fluorimetric Assay (HeLa extract); assay type: biochemical, human
Method: Measurement of in vitro inhibition of total HDAC enzyme activity:
The in vitro inhibition of total HDAC enzyme was determined by HDAC Fluorimetric Assay/Drug Discovery Kit (BIOMOL) according to manufacture's instruction. • 1. Add Assay buffer, diluted trichostatin A or test inhibitor to appropriate wells of the microtiter plate. Following table lists examples of various assay types and the additions required for each test.
• 2. Add diluted HeLa extract or other HDAC sample to all wells except those that are to be “No Enzyme Controls” (Blank). • 3. Allow diluted Fluor de Lys™ Substrate and the samples in the microtiter plate to equilibrate to assay temperature (25° C.). • 4. Initiate HDAC reactions by adding diluted substrate (25 μl) to each well and mixing thoroughly. • 5. Allow HDAC reactions to proceed for desired length of time and then stop them by addition of Fluor de Lys™ Developer (50 μl). Incubate plate at room temperature (25° C.) for 10-15 min. • 6. Read samples in a microtiter-plate reading fluorimeter capable of excitation at a wavelength in the range 350-380 nm and detection of emitted light in the range 440-460 nm. Measurement of in vivo inhibition of HDAC subtype activity: […]

A549 = test: Tumor cell proliferation (MTS), A549; assay type: cell-based; details: Homo sapiens, A549, 72 hours
Method: as §2, §3

HDAC7 = molecular target: T2, HDAC7 (Homo sapiens, UniProt Q8WUI4); test: Nur77 reporter assay in HeLa cells; assay type: cell-based; details: for HDAC7 (Nur77 reporter assay) % Max Resp of CS055 at 3 μM: relative to CS055 at 3 μM; for EC50: 24 hours
T2 construct: endogenous in cells; host or cells: HeLa
T2 sequence (Q8WUI4 1-952): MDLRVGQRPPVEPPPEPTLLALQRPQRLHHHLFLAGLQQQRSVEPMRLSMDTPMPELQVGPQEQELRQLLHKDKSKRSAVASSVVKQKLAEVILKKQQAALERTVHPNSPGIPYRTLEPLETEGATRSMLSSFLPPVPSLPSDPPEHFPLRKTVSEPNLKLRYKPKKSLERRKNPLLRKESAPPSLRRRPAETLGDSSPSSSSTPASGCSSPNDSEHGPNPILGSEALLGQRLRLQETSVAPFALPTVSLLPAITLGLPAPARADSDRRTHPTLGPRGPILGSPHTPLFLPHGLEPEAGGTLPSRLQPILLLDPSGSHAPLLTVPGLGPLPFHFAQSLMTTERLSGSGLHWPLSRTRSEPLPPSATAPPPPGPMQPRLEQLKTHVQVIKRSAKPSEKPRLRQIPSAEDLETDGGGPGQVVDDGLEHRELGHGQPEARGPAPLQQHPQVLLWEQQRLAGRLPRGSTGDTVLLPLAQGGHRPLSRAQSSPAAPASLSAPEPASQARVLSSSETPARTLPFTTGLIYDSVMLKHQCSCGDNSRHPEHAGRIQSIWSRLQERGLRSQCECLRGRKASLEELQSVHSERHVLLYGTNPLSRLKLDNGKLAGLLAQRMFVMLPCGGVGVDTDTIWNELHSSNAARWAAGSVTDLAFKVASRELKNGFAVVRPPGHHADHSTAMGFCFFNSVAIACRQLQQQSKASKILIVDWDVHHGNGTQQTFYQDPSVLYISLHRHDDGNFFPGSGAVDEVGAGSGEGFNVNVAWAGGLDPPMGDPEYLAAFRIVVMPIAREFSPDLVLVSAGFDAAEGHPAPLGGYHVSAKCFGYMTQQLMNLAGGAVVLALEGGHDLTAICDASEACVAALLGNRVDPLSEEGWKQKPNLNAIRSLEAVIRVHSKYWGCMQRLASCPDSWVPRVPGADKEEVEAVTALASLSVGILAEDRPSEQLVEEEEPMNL
Method: as §1

Raji = test: Tumor cell proliferation (MTS), Raji; assay type: cell-based; details: Homo sapiens, 72 hours
Method: as §2, §3

Sequence of VEGFR2 (P35968 807-1356): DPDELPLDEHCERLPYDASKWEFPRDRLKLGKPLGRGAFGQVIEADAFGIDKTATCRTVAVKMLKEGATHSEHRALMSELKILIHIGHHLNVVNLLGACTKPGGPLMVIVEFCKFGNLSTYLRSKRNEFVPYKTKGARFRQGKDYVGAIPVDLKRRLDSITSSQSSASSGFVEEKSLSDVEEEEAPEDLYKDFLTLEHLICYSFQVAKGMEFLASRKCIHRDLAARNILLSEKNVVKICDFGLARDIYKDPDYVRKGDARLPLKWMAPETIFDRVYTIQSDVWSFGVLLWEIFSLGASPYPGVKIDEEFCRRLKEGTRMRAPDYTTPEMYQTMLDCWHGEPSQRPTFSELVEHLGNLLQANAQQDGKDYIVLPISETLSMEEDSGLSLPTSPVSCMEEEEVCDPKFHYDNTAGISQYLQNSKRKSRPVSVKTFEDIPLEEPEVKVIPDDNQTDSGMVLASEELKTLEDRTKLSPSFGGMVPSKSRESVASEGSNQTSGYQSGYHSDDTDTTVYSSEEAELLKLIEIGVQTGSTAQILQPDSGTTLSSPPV
T1 sequence (O15379 whole entry): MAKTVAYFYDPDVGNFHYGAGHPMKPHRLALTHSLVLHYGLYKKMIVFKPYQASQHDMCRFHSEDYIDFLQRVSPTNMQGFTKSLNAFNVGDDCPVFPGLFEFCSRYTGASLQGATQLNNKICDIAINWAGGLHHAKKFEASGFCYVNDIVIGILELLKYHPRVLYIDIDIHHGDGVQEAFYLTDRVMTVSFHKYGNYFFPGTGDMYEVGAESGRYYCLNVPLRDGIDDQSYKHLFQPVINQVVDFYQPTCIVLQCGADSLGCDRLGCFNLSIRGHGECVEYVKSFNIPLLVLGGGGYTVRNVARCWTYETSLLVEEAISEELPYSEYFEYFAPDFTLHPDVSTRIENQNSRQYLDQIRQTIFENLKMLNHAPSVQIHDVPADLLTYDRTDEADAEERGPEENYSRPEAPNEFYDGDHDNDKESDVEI
T1 sequence (Q9Y618 whole entry partner): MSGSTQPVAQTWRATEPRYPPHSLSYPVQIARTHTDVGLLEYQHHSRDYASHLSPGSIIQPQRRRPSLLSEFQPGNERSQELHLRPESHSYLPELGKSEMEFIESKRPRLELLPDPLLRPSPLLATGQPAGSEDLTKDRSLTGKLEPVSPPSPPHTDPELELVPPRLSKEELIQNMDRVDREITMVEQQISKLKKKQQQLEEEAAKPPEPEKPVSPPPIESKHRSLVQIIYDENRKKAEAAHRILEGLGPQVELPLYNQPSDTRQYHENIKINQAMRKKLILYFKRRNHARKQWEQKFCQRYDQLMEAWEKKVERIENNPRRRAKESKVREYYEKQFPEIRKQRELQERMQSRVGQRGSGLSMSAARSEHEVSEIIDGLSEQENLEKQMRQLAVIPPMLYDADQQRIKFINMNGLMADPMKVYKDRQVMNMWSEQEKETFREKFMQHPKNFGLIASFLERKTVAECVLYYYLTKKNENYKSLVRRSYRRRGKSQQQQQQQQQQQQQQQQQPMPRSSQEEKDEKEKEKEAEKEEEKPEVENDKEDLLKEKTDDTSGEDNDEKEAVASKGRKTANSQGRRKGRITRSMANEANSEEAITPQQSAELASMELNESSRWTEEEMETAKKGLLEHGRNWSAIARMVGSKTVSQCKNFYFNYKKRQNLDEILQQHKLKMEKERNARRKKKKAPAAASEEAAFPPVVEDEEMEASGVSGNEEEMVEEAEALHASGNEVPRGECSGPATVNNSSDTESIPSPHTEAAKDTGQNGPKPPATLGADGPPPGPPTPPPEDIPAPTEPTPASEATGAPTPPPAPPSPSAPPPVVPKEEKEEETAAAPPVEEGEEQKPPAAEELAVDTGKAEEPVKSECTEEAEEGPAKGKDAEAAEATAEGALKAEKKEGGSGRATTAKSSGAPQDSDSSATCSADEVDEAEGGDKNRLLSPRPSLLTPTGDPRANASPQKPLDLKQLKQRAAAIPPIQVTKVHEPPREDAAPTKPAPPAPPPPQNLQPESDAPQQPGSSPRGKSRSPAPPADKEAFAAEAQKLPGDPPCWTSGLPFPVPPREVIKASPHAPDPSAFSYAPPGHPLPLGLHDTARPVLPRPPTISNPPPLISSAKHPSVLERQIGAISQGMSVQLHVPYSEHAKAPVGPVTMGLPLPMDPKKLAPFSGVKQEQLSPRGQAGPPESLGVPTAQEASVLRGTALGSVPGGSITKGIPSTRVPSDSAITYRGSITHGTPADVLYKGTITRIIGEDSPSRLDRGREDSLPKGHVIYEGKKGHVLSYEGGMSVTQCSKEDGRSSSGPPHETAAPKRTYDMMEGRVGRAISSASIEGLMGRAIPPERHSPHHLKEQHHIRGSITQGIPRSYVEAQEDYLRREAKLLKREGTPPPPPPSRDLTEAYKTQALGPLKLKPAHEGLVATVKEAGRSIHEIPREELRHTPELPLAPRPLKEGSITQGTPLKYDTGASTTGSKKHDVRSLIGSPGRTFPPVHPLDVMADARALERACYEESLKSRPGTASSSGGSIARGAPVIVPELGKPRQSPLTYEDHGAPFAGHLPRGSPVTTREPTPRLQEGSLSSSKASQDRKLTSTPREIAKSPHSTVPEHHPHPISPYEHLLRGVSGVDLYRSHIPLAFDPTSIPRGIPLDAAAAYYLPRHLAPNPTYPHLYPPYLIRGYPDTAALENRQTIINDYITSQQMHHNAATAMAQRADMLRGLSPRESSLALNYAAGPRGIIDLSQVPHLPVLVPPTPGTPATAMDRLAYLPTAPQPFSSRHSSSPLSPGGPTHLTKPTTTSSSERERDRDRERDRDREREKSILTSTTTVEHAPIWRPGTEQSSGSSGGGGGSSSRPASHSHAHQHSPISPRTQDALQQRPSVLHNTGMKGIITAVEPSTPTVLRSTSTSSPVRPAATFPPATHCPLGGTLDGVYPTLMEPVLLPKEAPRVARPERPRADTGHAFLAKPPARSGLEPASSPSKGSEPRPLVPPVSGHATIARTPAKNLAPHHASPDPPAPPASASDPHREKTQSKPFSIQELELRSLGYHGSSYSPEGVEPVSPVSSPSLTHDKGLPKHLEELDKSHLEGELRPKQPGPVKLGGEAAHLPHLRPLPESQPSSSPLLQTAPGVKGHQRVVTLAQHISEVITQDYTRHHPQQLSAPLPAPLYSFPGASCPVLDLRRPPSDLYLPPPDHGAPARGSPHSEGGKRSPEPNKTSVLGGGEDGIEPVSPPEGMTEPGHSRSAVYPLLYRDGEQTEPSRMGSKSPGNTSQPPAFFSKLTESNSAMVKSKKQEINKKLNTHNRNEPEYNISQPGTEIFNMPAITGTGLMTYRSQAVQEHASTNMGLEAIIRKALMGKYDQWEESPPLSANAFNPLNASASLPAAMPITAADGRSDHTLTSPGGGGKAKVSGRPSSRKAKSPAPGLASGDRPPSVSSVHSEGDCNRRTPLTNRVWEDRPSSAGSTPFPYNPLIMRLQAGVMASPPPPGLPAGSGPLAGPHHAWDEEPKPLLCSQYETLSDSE

Row | HDAC3 (GDF11 reporter assay) % Max Resp of CS055 at 3 μM (HDAC3) [%] | IC50 (VEGFR2) [nM] | GI50 (MDA-MB-231) [µM] | GI50 (U937) [µM] | % inhibition of total HDAC enzyme activity at 30 μM (total HDAC enzyme) [%] | GI50 (A549) [µM] | HDAC7 (Nur77 reporter assay) % Max Resp of CS055 at 3 μM (HDAC7) [%] | GI50 (Raji) [µM] | EC50 (HDAC3) [µM] | EC50 (HDAC7) [µM] | SMILES | GI50 (PDGFRβ NIH-3T3 cells) [nM]
1 | 8.3 | > 1000 | > 60 | > 60 | 6.10 | > 60 | 13.2 | > 60 |  |  | Cc1[nH]c(/C=N/N=C2\C(=O)Nc3ccc(F)cc32)c(C)c1C(=O)NCCCCNc1ccc(C(=O)Nc2ccccc2N)cn1 [Example 10, N-(2-aminophenyl)-6-(4-(2-(((5-fluoro-2-oxoindolin-3-ylidene)hydrazono)-methyl)-3,5-dimethyl-1H-pyrrole-4-carboxamido)butylamino)nicotinamide] | > 1000
2 | 2.4 | 12 | > 60 | > 60 | 6.90 | > 60 | 3.9 | > 60 |  |  | Cc1[nH]c(/C=N/N=C2\C(=O)Nc3ccc(F)cc32)c(C)c1C(=O)NCCNc1ccc(C(=O)Nc2ccccc2N)cn1 [Example 4, N-(2-aminophenyl)-6-(2-(2-(((5-fluoro-2-oxoindolin-3-ylidene)hydrazono)-methyl)-3,5-dimethyl-1H-pyrrole-4-carboxamido)ethylamino)nicotinamide] | > 1000
3 | 81.4 | 35 | > 60 | > 60 | 6.30 | > 60 | 88.7 | > 60 | 15.5 | 13.2 | Cc1[nH]c(/C=C2\C(=O)Nc3ccc(F)cc32)c(C)c1C(=O)NCCCCNc1ccc(C(=O)Nc2ccccc2N)cn1 [Example 9, (Z)-N-(2-aminophenyl)-6-(4-(2-((5-fluoro-2-oxoindolin-3-ylidene)methyl)-3,5-dimethyl-1H-pyrrole-4-carboxamido)butylamino)nicotinamide] | 105
4 | 75.6 | 45 | > 60 | > 60 | 12.50 | > 60 | 88.1 | 3.45 | 1 | 2.5 | Cc1[nH]c(/C=C2\C(=O)Nc3ccc(F)cc32)c(C)c1C(=O)NCCCNc1ccc(C(=O)Nc2ccccc2N)cn1 [Example 6, (Z)-N-(2-aminophenyl)-6-(3-(2-((5-fluoro-2-oxoindolin-3-ylidene)methyl)-3,5-dimethyl-1H-pyrrole-4-carboxamido)propylamino)nicotinamide] | > 1000
